In this test the target is α4β7 integrin (Homo sapiens (Human), UniProt P13612+P26010). The test is described as follows: α4β7 Integrin Cell Capture Assay. In kind it is cell-based. As to the method:
α4β7 Integrin Cell Capture Assay
The potency of inhibitors in preventing α4β7 integrin interaction with MadCAM-1 was measured by monitoring the capture of α4β7 integrin expressing cells on a recombinant MadCAM-1 extracellular domain-coated plate. […] The plates were then washed with PBS and blocked with 3% BSA for 2 hours before being washed again.
RPM18866 cells were spun down and re-suspended in assay medium (DMEM+0.5% FBS+0.5 mM MnCl2) at a density of 0.5×10^6 cells/mL. […] The plates were incubated at 37° C. for 1 hour. 50 μL of cells were transferred to the blocked, MadCAM-1-coated plates and incubated for 30 minutes at 37° C. […] The plates were incubated for 90 minutes at room temperature. The plates were then washed 3 times with 70 μL of PBS per well and imaged on a Cellomics ArrayScan instrument. The cells that were bound to the plate were counted and plotted against the compound concentration to determine the EC50 of the test compounds.

The mark [1] stands for this setting: Table 1, capture of α4β7 expressing RPM18866 cells on MadCAM-1 extracellular domain-coated plate.
Setting [2] is: Table 2, capture of α4β7 expressing RPM18866 cells on MadCAM-1 extracellular domain-coated plate.
[3] abbreviates: RPMI8866 cells captured on MadCAM-1 extracellular domain-coated plate.

Sequence of α4β7 integrin (P13612 34-1032): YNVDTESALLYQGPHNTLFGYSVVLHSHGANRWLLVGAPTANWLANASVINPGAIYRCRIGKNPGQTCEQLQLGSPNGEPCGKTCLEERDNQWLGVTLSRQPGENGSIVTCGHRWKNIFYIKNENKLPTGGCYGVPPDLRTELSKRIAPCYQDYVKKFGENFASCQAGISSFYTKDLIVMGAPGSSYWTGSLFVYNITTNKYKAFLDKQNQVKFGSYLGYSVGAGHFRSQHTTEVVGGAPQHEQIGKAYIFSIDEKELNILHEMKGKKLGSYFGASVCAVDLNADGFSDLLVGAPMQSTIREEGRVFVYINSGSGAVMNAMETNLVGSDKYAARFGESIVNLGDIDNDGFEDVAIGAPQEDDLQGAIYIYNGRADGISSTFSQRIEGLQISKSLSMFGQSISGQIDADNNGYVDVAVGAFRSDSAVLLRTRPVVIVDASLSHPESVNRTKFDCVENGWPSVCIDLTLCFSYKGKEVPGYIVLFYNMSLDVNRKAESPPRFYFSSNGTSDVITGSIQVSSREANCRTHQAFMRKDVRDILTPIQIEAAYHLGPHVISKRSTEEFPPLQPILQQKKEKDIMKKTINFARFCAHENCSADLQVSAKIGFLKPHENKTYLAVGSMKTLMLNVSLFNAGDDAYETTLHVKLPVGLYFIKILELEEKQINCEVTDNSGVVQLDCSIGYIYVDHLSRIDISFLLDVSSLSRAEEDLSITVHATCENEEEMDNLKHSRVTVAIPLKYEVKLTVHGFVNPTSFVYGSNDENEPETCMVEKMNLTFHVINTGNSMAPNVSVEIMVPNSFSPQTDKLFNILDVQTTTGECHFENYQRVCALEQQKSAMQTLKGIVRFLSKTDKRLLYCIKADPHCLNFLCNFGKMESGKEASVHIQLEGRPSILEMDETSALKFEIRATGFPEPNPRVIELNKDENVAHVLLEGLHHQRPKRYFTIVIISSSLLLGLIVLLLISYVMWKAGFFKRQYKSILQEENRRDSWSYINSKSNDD
Sequence of α4β7 integrin (P26010 20-798): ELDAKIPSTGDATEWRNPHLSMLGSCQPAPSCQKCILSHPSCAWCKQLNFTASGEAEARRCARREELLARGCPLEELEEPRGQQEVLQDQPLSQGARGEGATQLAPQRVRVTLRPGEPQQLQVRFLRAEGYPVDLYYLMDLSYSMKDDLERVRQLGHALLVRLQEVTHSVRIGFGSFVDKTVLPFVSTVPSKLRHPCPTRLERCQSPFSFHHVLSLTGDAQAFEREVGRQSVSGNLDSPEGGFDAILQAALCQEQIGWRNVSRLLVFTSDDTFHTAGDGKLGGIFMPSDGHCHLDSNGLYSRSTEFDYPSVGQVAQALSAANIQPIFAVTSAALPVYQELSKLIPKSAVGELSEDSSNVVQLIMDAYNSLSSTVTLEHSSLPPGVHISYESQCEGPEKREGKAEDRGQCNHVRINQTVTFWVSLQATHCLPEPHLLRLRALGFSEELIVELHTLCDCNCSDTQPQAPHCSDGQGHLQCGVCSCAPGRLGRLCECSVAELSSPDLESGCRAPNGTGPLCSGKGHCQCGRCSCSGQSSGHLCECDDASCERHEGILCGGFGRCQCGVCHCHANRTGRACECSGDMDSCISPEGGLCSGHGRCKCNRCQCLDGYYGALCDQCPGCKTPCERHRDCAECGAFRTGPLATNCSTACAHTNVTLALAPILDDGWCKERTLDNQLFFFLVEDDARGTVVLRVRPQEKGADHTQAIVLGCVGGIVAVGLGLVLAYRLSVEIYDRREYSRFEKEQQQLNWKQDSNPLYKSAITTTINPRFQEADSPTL

What is called EC50 is the midpoint of the concentration-response curve. A lower EC50 goes with greater potency. Under setting [1], `CC[C@@H](Nc1cc(F)c(C(=O)N[C@@H](Cc2ccc(-c3c(C)c4cc(F)ccc4n(C)c3=O)c3ncccc23)C(=O)O)c(F)c1)C(F)(F)F` (atropisomer, axis not shown) [Example 109, (S)-2-(2,6-difluoro-4-(((R)-1,1,1-trifluorobutan-2-yl)amino)benzamido)-3-(6-fluoro-1,4-dimethyl-2-oxo-1,2-dihydro-[3,8′-biquinolin]-5′-yl)propanoic acid] yielded an EC50 of 0.3 nM.
Under setting [2], `CC[C@@H](Nc1cc(F)c(C(=O)N[C@@H](Cc2ccc(-c3c(C(F)(F)F)c4cc(N(C)C)ccc4n(C)c3=O)c3ncccc23)C(=O)O)c(F)c1)C(F)(F)F` (atropisomer, axis not shown) [Example 168] gave a concentration giving a half-maximal response (EC50) of 0.5 nM.
Compound `CC[C@@H](Nc1cc(F)c(C(=O)N[C@@H](Cc2ccc(-c3c(C)c4cc(F)ccc4n(C)c3=O)c3ncccc23)C(=O)O)c(F)c1)C(F)(F)F` (atropisomer, axis not shown) [Example 185] showed an EC50 under setting [2] of 1 nM.
The compound `Cc1cc(C(F)(F)F)c(-c2ccc(C[C@H](NC(=O)c3c(F)cc(N4CCCC[C@@H]4C(F)(F)F)cc3F)C(=O)O)c3cccnc23)c(=O)n1C` (atropisomer, axis not shown) [Example 230] returned an EC50 under setting [2] of 2.2 nM. Against the preceding compound, the EC50 is about 2.2-fold higher.
As for `CC[C@@H](Nc1cc(F)c(C(=O)N[C@@H](Cc2ccc(-c3c(C)n(C)c(=O)n(C)c3=O)c3ncccc23)C(=O)O)c(F)c1)C(F)(F)F` (atropisomer, axis not shown) [Example 234], under setting [2], the EC50 is 2.3 nM.
As to `CC[C@@H](Nc1cc(F)c(C(=O)N[C@@H](Cc2ccc(-c3c(C(F)(F)F)c4cc(N(C)C)ccc4n(C)c3=O)c3ncccc23)C(=O)O)c(F)c1)C(F)(F)F` (atropisomer, axis not shown) [Example 302], the EC50 under setting [2] turned out to be 9.4 nM.
For the compound `Cc1cc(C(F)(F)F)c(-c2ccc(C[C@H](NC(=O)c3c(F)cc(N4CCCC[C@@H]4C(F)(F)F)cc3F)C(=O)O)c3cccnc23)c(=O)n1C` (atropisomer, axis not shown) [Example 344], the EC50 under setting [2] is 0.8 nM.
`Cc1cc(N2CCOC[C@@H]2C(F)(F)F)cc(F)c1C(=O)N[C@@H](Cc1ccc(-n2c(=O)c3ccncc3n(C)c2=O)c2ncccc12)C(=O)O` (atropisomer, axis not shown) [Example 408, (S)-2-(2-fluoro-6-methyl-4-((R)-3-(trifluoromethyl)morpholino)benzamido)-3-(8-(1-methyl-2,4-dioxo-1,4-dihydropyrido[3,4-d]pyrimidin-3(2H)-yl)quinolin-5-yl)propanoic acid] returned an EC50 under setting [3] of 0.049 nM.
With `Cc1cc(N2CCOC[C@@H]2C(F)(F)F)cc(F)c1C(=O)N[C@@H](Cc1ccc(-c2c(C(F)(F)F)cc(C)n(C)c2=O)c2ncccc12)C(=O)O` (atropisomer, axis not shown) [Example 461], a half-maximal response under setting [3] (EC50) required 0.093 nM. This EC50 lies about 1.9-fold higher than the previous one.
On the same count and under the same terms, in the case of `Cc1cc(C(F)(F)F)c(-c2ccc(C[C@H](NC(=O)c3c(F)cc(N4CCC[C@@H]4C(F)(F)F)cc3F)C(=O)O)c3cccnc23)c(=O)n1C` (atropisomer, axis not shown) [Example 485] it was 0.233 nM.
In turn, `Cc1cc(C(F)(F)F)c(-c2ccc(C[C@H](NC(=O)c3c(F)cc(N4CCN(C)C[C@@H]4C(F)(F)F)cc3F)C(=O)O)c3cccnc23)c(=O)n1C` (atropisomer, axis not shown) [Example 486] registered an EC50 under setting [3] of 1.31 nM.
Under setting [1], `CC[C@@H](Nc1cc(F)c(C(=O)N[C@@H](Cc2ccc(-c3c(C(F)(F)F)cc(C)n(C)c3=O)c3ncccc23)C(=O)O)c(F)c1)C(F)(F)F` (single isomer, unassigned) [Example 107] showed an EC50 of 0.2 nM.
`CC[C@@H](Nc1cc(F)c(C(=O)N[C@@H](Cc2ccc(-c3c(C(F)(F)F)cc(C)n(C)c3=O)c3ncccc23)C(=O)O)c(F)c1)C(F)(F)F` (single isomer, unassigned) [Example 147] yielded an EC50 under setting [1] of 1.9 nM.
For the compound `Cc1cc(N2CCOC[C@@H]2C(F)(F)F)cc(F)c1C(=O)N[C@@H](Cc1ccc(-n2c(=O)c3ccncc3n(C)c2=O)c2ncccc12)C(=O)O` (single isomer, unassigned) [Example 407], the midpoint of the response under setting [3], the EC50, lay at 0.162 nM.
Consider `Cc1cccc(F)c1C(=O)N[C@@H](Cc1ccc(-c2ccc(C#N)cc2Cl)c2ncccc12)C(=O)O` [Example 1, (S)-3-(8-(2-chloro-4-cyanophenyl)quinolin-5-yl)-2-(2-fluoro-6-methylbenzamido)propanoic acid], for which the EC50 under setting [1] is 21.2 nM. That is a double-digit nanomolar value.
The compound `N#Cc1ccc(-c2ccc(C[C@H](NC(=O)c3c(F)cccc3Cl)C(=O)O)c3cccnc23)c(Cl)c1` [Example 2, (S)-3-(8-(2-chloro-4-cyanophenyl)quinolin-5-yl)-2-(2-chloro-6-fluorobenzamido)propanoic acid] registered an EC50 under setting [1] of 31.1 nM. The EC50 values of the last two compounds are within 1.5-fold of each other.
`N#Cc1ccc(-c2ccc(C[C@H](NC(=O)c3c(F)cccc3F)C(=O)O)c3cccnc23)c(Cl)c1` [Example 3, (S)-3-(8-(2-chloro-4-cyanophenyl)quinolin-5-yl)-2-(2,6-difluorobenzamido)propanoic acid] came in with an EC50 under setting [1] of 63.8 nM.
With `N#Cc1cc(Cl)c(-c2ccc(C[C@H](NC(=O)c3c(Cl)cccc3Cl)C(=O)O)c3cccnc23)c(Cl)c1` [Example 4, (S)-3-(8-(2,6-dichloro-4-cyanophenyl)quinolin-5-yl)-2-(2,6-dichlorobenzamido)propanoic acid], under setting [1], the EC50 was 6.7 nM.
As for `COc1cc(Cl)c(Cl)cc1-c1ccc(C[C@H](NC(=O)c2c(F)cccc2F)C(=O)O)c2cccnc12` [Example 5, (S)-3-(8-(4,5-dichloro-2-methoxyphenyl)quinolin-5-yl)-2-(2,6-difluorobenzamido)propanoic acid], the EC50 under setting [1] was determined as 17.4 nM.
For the compound `COc1cc(F)cc(C(F)(F)F)c1-c1ccc(C[C@H](NC(=O)c2c(F)cccc2F)C(=O)O)c2cccnc12` [Example 6, (2S)-2-(2,6-difluorobenzamido)-3-(8-(4-fluoro-2-methoxy-6-(trifluoromethyl)phenyl)quinolin-5-yl)propanoic acid], it took 4.5 nM to reach a half-maximal effect under setting [1] (EC50).
Compound `COc1cc2ccccc2cc1-c1ccc(C[C@H](NC(=O)c2c(F)cccc2F)C(=O)O)c2cccnc12` [Example 9, (S)-2-(2,6-difluorobenzamido)-3-(8-(3-methoxynaphthalen-2-yl)quinolin-5-yl)propanoic acid] returned an EC50 under setting [1] of 25.1 nM. This EC50 lies about 5.6-fold higher than the previous one.
With `Cc1cc(C)c(-c2ccc(C[C@H](NC(=O)c3c(F)cccc3F)C(=O)O)c3cccnc23)nc1C` [Example 11, (S)-2-(2,6-difluorobenzamido)-3-(8-(3,5,6-trimethylpyridin-2-yl)quinolin-5-yl)propanoic acid], the EC50 under setting [1] was found to be 22.9 nM. This EC50 and that of the compound before are within 1.5-fold of each other.
For the compound `Cc1cc(C(F)(F)F)c(-c2ccc(C[C@H](NC(=O)c3c(F)cccc3F)C(=O)O)c3cccnc23)nc1C` [Example 12, (S)-2-(2,6-difluorobenzamido)-3-(8-(5,6-dimethyl-3-(trifluoromethyl)pyridin-2-yl)quinolin-5-yl)propanoic acid], the EC50 under setting [1] came out at 7 nM. Against the preceding compound, the EC50 is about 3.3-fold lower.
Compound `Cn1c(=O)c(-c2ccc(C[C@H](NC(=O)c3c(F)cccc3F)C(=O)O)c3cccnc23)cc2ccccc21` [Example 14, (S)-2-(2,6-difluorobenzamido)-3-(1-methyl-2-oxo-1,2-dihydro-[3,8′-biquinolin]-5′-yl)propanoic acid] came in with an EC50 under setting [1] of 3.7 nM.
`N#Cc1ccc(-c2ccc(C[C@H](NC(=O)c3c(F)ccc(OC(F)F)c3F)C(=O)O)c3cccnc23)c(Cl)c1` [Example 16, (S)-3-(8-(2-chloro-4-cyanophenyl)quinolin-5-yl)-2-(3-(difluoromethoxy)-2,6-difluorobenzamido)propanoic acid] registered an EC50 under setting [1] of 67.4 nM.
In turn, `CCOCc1cc(OC)c(-c2ccc(C[C@H](NC(=O)c3c(F)cccc3F)C(=O)O)c3cccnc23)c(OC)c1` [Example 18, (S)-2-(2,6-difluorobenzamido)-3-(8-(4-(ethoxymethyl)-2,6-dimethoxyphenyl)quinolin-5-yl)propanoic acid] returned an EC50 under setting [1] of 9 nM.
`O=C(N[C@@H](Cc1ccc(-c2c(Cl)cc(F)cc2Cl)c2ncccc12)C(=O)O)c1c(F)cccc1F` [Example 19, (S)-3-(8-(2,6-dichloro-4-fluorophenyl)quinolin-5-yl)-2-(2,6-difluorobenzamido)propanoic acid] returned an EC50 under setting [1] of 50 nM.
In turn, `O=C(N[C@@H](Cc1ccc(-c2c(Cl)cncc2Cl)c2ncccc12)C(=O)O)c1c(F)cccc1F` [Example 20, (S)-3-(8-(3,5-dichloropyridin-4-yl)quinolin-5-yl)-2-(2,6-difluorobenzamido)propanoic acid] registered an EC50 under setting [1] of 186 nM.
Compound `N#Cc1ccc(-c2ccc(C[C@H](NC(=O)c3c(Cl)cc(F)cc3Cl)C(=O)O)c3cccnc23)c(Cl)c1` [Example 22, (S)-3-(8-(2-chloro-4-cyanophenyl)quinolin-5-yl)-2-(2,6-dichloro-4-fluorobenzamido)propanoic acid] gave an EC50 under setting [1] of 48.5 nM.
In the case of `COc1cccc(F)c1C(=O)N[C@@H](Cc1ccc(-c2ccc(C#N)cc2Cl)c2ncccc12)C(=O)O` [Example 23, (S)-3-(8-(2-chloro-4-cyanophenyl)quinolin-5-yl)-2-(2-fluoro-6-methoxybenzamido)propanoic acid], the EC50 under setting [1] was determined as 46.7 nM.
With `CC(O)Cc1cc(F)c(C(=O)N[C@@H](Cc2ccc(-c3ccc(C#N)cc3Cl)c3ncccc23)C(=O)O)c(F)c1` (stereo partly drawn) [Example 24, (2S)-3-(8-(2-chloro-4-cyanophenyl)quinolin-5-yl)-2-(2,6-difluoro-4-(2-hydroxypropyl)benzamido)propanoic acid], a half-maximal response under setting [1] (EC50) required 56.7 nM.
